Experimental data as given in ChEMBL document CHEMBL3994607, “Synthesis of new sarsasapogenin derivatives with cytotoxicity and apoptosis-inducing activities in human breast cancer MCF-7 cells” (Eur J Med Chem, 2017).
Active and inactive are the calls of the source. The rule behind the calls is not given here.

What was measured:
U-251 = test: Cytotoxicity against human U251 cells assessed as decrease in cell proliferation after 48 hrs by MTT colorimetric assay; assay type: functional, cell-based; details: U-251, 48 h
Hep 3B2 = test: Cytotoxicity against human Hep3B cells assessed as decrease in cell proliferation after 48 hrs by MTT colorimetric assay; assay type: functional, cell-based
A549 [1] = test: Cytotoxicity against human A549 cells assessed as decrease in cell proliferation after 48 hrs by MTT colorimetric assay; assay type: functional, cell-based; details: A549, 48 h
Bcap37 = test: Cytotoxicity against human Bcap37 cells assessed as decrease in cell proliferation after 48 hrs by MTT colorimetric assay; assay type: functional, cell-based; details: Bcap37, 48 h
HepG2 [2] = test: Cytotoxicity against human HepG2 cells assessed as decrease in cell proliferation after 48 hrs by MTT colorimetric assay; assay type: functional, cell-based; details: HepG2, 48 h
MCF7 [3] = test: Cytotoxicity against human MCF7 cells assessed as decrease in cell proliferation after 48 hrs by MTT colorimetric assay; assay type: functional, cell-based; details: for IC50: Homo sapiens, MCF7, 48 h
HepG2 [4] = test: Potency index, ratio of sarsasapogenin IC50 to test compound IC50 for human HepG2 cells; assay type: functional
MCF7 [5] = test: Cell cycle arrest in human MCF7 cells assessed as accumulation at sub-G1 phase at 1.5 to 6 uM after 48 hrs by propidium iodide staining-based flow cytometric method; assay type: functional
MCF7 [6] = test: Cell cycle arrest in human MCF7 cells assessed as accumulation at G2/M phase at 1.5 to 6 uM after 48 hrs by propidium iodide staining-based flow cytometric method; assay type: functional
MCF7 [7] = test: Induction of apoptosis in human MCF7 cells assessed as late apoptotic cells at 1.5 uM after 48 hrs by annexin-V/propidium iodide staining-based flow cytometric method (reference value: 1.43%); assay type: functional
MCF7 [8] = test: Induction of apoptosis in human MCF7 cells assessed as early apoptotic cells at 6 uM after 48 hrs by annexin-V/propidium iodide staining-based flow cytometric method (reference value: 1.17%); assay type: functional
MCF7 [9] = test: Potency index, ratio of sarsasapogenin IC50 to test compound IC50 for human MCF7 cells; assay type: functional
MCF7 [10] = test: Induction of apoptosis in human MCF7 cells assessed as early apoptotic cells at 1.5 uM after 48 hrs by annexin-V/propidium iodide staining-based flow cytometric method (reference value: 1.17%); assay type: functional
MCF7 [11] = test: Induction of apoptosis in human MCF7 cells assessed as formation of apoptotic bodies at 1.5 to 6 uM after 48 hrs by inverted phase contrast microscopic method; assay type: functional, cell-based
MCF7 [12] = test: Induction of apoptosis in human MCF7 cells assessed as early apoptotic cells at 3 uM after 48 hrs by annexin-V/propidium iodide staining-based flow cytometric method (reference value: 1.17%); assay type: functional
MCF7 [13] = test: Induction of apoptosis in human MCF7 cells assessed as late apoptotic cells at 6 uM after 48 hrs by annexin-V/propidium iodide staining-based flow cytometric method (reference value: […]); assay type: functional
MCF7 [14] = test: Induction of apoptosis in human MCF7 cells assessed as membrane blebbing at 1.5 to 6 uM after 48 hrs by inverted phase contrast microscopic method; assay type: functional, cell-based
MCF7 [15] = test: Induction of apoptosis in human MCF7 cells assessed as cell rounding at 1.5 to 6 uM after 48 hrs by inverted phase contrast microscopic method; assay type: functional, cell-based
MCF7 [16] = test: Induction of apoptosis in human MCF7 cells assessed as cell shrinkage at 1.5 to 6 uM after 48 hrs by inverted phase contrast microscopic method; assay type: functional, cell-based
MCF7 [17] = test: Induction of apoptosis in human MCF7 cells assessed as upregulation of cleaved PARP level at 6 uM after 48 hrs by Western blot method relative to control; assay type: functional
MCF7 [18] = test: Induction of apoptosis in human MCF7 cells assessed as late apoptotic cells at 3 uM after 48 hrs by annexin-V/propidium iodide staining-based flow cytometric method (reference value: 1.43%); assay type: functional
MCF7 [19] = test: Induction of apoptosis in human MCF7 cells assessed as upregulation of cleaved caspase 7 level at 6 uM after 48 hrs by Western blot method relative to control; assay type: functional
A549 [20] = test: Potency index, ratio of sarsasapogenin IC50 to test compound IC50 for human A549 cells; assay type: functional

SMILES | IC50 (U-251) | IC50 (Hep 3B2) | IC50 (A549 [1]) | IC50 (Bcap37) | IC50 (HepG2 [2]) | IC50 (MCF7 [3]) | also measured
C[C@@H](CC[C@H]1O[C@H]2C[C@H]3[C@@H]4CC[C@@H]5C[C@@H](OCc6ccccc6)CC[C@]5(C)[C@H]4CC[C@]3(C)[C@H]2[C@@H]1C)CN1CCCC1 | 23.6 µM | 26.8 µM | 27.1 µM | 36 µM | 30.4 µM | 37.6 µM | –
C[C@@H](CC[C@H]1O[C@H]2C[C@H]3[C@@H]4CC[C@@H]5C[C@@H](OCc6ccccc6)CC[C@]5(C)[C@H]4CC[C@]3(C)[C@H]2[C@@H]1C)CN1CCNCC1 | > 100 µM | > 100 µM | > 100 µM | > 100 µM | > 100 µM | > 100 µM | –
C[C@H](CO)CC[C@H]1O[C@H]2C[C@H]3[C@@H]4CC[C@@H]5C[C@@H](OCc6ccc(F)cc6)CC[C@]5(C)[C@H]4CC[C@]3(C)[C@H]2[C@@H]1C | 38.8 µM | 11.7 µM | 25.1 µM | 97.3 µM | 14.5 µM | 44.1 µM | –
CCN(CC)C[C@@H](C)CC[C@H]1O[C@H]2C[C@H]3[C@@H]4CC[C@@H]5C[C@@H](OCc6ccccc6)CC[C@]5(C)[C@H]4CC[C@]3(C)[C@H]2[C@@H]1C | > 100 µM | 28.2 µM | 67.2 µM | > 100 µM | 44 µM | 93 µM | –
COc1ccc(CO[C@H]2CC[C@@]3(C)[C@H](CC[C@@H]4[C@@H]3CC[C@]3(C)[C@H]5[C@H](C)[C@@H](CC[C@H](C)CN6CCN(C)CC6)O[C@H]5C[C@@H]43)C2)cc1 | 8.37 µM | > 100 µM | 6.78 µM | 9.12 µM | 21.4 µM | 3.74 µM | –
C[C@@H](CC[C@H]1O[C@H]2C[C@H]3[C@@H]4CC[C@@H]5C[C@@H](OCc6ccc(F)cc6)CC[C@]5(C)[C@H]4CC[C@]3(C)[C@H]2[C@@H]1C)CN1CCNCC1 | 31.3 µM | 16.8 µM | 14.3 µM | 15.6 µM | 8.61 µM | 16.7 µM | Ratio IC50 (HepG2 [4]): 4.7
C[C@@H](CC[C@H]1O[C@H]2C[C@H]3[C@@H]4CC[C@@H]5C[C@@H](OCc6ccccc6)CC[C@]5(C)[C@H]4CC[C@]3(C)[C@H]2[C@@H]1C)CN1CCN(C)CC1 | > 100 µM | 70.8 µM | > 100 µM | > 100 µM | 52.3 µM | > 100 µM | –
C[C@H](CO)CC[C@H]1O[C@H]2C[C@H]3[C@@H]4CC[C@@H]5C[C@@H](OCc6ccccc6)CC[C@]5(C)[C@H]4CC[C@]3(C)[C@H]2[C@@H]1C | 19.8 µM | 10.1 µM | 34.4 µM | 25 µM | 14.5 µM | 22.1 µM | –
C[C@@H](CC[C@H]1O[C@H]2C[C@H]3[C@@H]4CC[C@@H]5C[C@@H](OCc6ccc(F)cc6)CC[C@]5(C)[C@H]4CC[C@]3(C)[C@H]2[C@@H]1C)CN1CCN(C)CC1 | > 100 µM | > 100 µM | 13.9 µM | > 100 µM | 35.6 µM | 44.1 µM | –
CCN(CC)C[C@@H](C)CC[C@H]1O[C@H]2C[C@H]3[C@@H]4CC[C@@H]5C[C@@H](OCc6ccc(F)cc6)CC[C@]5(C)[C@H]4CC[C@]3(C)[C@H]2[C@@H]1C | > 100 µM | > 100 µM | 18 µM | > 100 µM | 26.4 µM | 45.2 µM | –
O=c1[nH]cc(F)c(=O)[nH]1 [FLUOROURACIL] | 48.7 µM | – | – | – | 10.2 µM | – | –
COc1ccc(CO[C@H]2CC[C@@]3(C)[C@H](CC[C@@H]4[C@@H]3CC[C@]3(C)[C@H]5[C@H](C)[C@@H](CC[C@H](C)CN(C)C)O[C@H]5C[C@@H]43)C2)cc1 | > 100 µM | 23.4 µM | > 100 µM | > 100 µM | 79.5 µM | > 100 µM | –
C[C@@H](CC[C@H]1O[C@H]2C[C@H]3[C@@H]4CC[C@@H]5C[C@@H](OCc6ccccc6)CC[C@]5(C)[C@H]4CC[C@]3(C)[C@H]2[C@@H]1C)CN(C)C | > 100 µM | 28.3 µM | 91.3 µM | > 100 µM | 42.7 µM | > 100 µM | –
COc1ccc(CO[C@H]2CC[C@@]3(C)[C@H](CC[C@@H]4[C@@H]3CC[C@]3(C)[C@H]5[C@H](C)[C@@H](CC[C@H](C)CN6CCNCC6)O[C@H]5C[C@@H]43)C2)cc1 | 4.92 µM | 9.07 µM | 4.43 µM | 8.83 µM | 4.35 µM | – | Activity (MCF7 [5]): Active; Activity (MCF7 [6]): Active; Activity (MCF7 [7]): 5.21%; Activity (MCF7 [8]): 4.35%; Ratio IC50 (MCF7 [9]): 16.7; Activity (MCF7 [10]): 3.24%; Activity (MCF7 [11]): Active; Activity (MCF7 [12]): 4.51%; Activity (MCF7 [13]): 7.27%; Activity (MCF7 [14]): Active; Activity (MCF7 [15]): Active; Activity (MCF7 [16]): Active; fold change (FC) (MCF7 [17]): 13; Activity (MCF7 [18]): 5.8%; Activity (MCF7 [3]): Dose-dependent effect; Activity (MCF7 [3]; record 2): 2.95 µM; fold change (FC) (MCF7 [19]): 16
COc1ccc(CO[C@H]2CC[C@@]3(C)[C@H](CC[C@@H]4[C@@H]3CC[C@]3(C)[C@H]5[C@H](C)[C@@H](CC[C@H](C)CN6CCCC6)O[C@H]5C[C@@H]43)C2)cc1 | > 100 µM | 69.9 µM | > 100 µM | > 100 µM | > 100 µM | > 100 µM | –
C[C@H]1CC[C@@]2(OC1)O[C@H]1C[C@H]3[C@@H]4CC[C@@H]5C[C@@H](O)CC[C@]5(C)[C@H]4CC[C@]3(C)[C@H]1[C@@H]2C [SARSASAPOGENIN] | > 100 µM | > 100 µM | 38.1 µM | > 100 µM | 40.3 µM | 49.2 µM | –
CO[C@H]1CC[C@@]2(C)[C@H](CC[C@@H]3[C@@H]2CC[C@]2(C)[C@H]4[C@H](C)[C@@H](CC[C@@H](C)CN5CCNCC5)O[C@H]4C[C@@H]32)C1 | – | – | – | – | 35.5 µM | – | –
CO[C@H]1CC[C@@]2(C)[C@H](CC[C@@H]3[C@@H]2CC[C@]2(C)[C@H]4[C@H](C)[C@@H](CC[C@@H](C)CN5CCCC5)O[C@H]4C[C@@H]32)C1 | – | – | – | – | 4.24 µM | – | –
C[C@@H](CC[C@H]1O[C@H]2C[C@H]3[C@@H]4CC[C@@H]5C[C@@H](OCc6ccc(F)cc6)CC[C@]5(C)[C@H]4CC[C@]3(C)[C@H]2[C@@H]1C)CN(C)C | 14.1 µM | > 100 µM | 4.02 µM | > 100 µM | 27.2 µM | 17.9 µM | Ratio IC50 (A549 [20]): 9.5
CCN(CC)C[C@@H](C)CC[C@H]1O[C@H]2C[C@H]3[C@@H]4CC[C@@H]5C[C@@H](OCc6ccc(OC)cc6)CC[C@]5(C)[C@H]4CC[C@]3(C)[C@H]2[C@@H]1C | 12.9 µM | > 100 µM | 14.3 µM | 14.7 µM | 13.9 µM | 4.83 µM | –
C[C@@H](CC[C@H]1O[C@H]2C[C@H]3[C@@H]4CC[C@@H]5C[C@@H](OCc6ccc(F)cc6)CC[C@]5(C)[C@H]4CC[C@]3(C)[C@H]2[C@@H]1C)CN1CCCC1 | 7.1 µM | 12.9 µM | 8.98 µM | 9.68 µM | 4.38 µM | 5.13 µM | Ratio IC50 (HepG2 [4]): 9.2
